Data reported in patent US5466675A, “Immunological activity of rhamnolipids” (priority 1992, dated 1995).

Tests used:
mice C57B1/6 [1] = assay: range-finding study phase (five doses per day)
[2] = test system: oxazolone-induced delayed type hypersensitivity; assay: immunostimulation (cellular): oxazolone-induced delayed type hypersensitivity; type: in vivo, mouse; conditions: for Swelling (R -L) / ear thickness, Left Ear (No Oxa.) / ear thickness, Right Ear (24 hrs Oxa.): X ± SEM
Description: The test substance was administered i.p to groups of 5 mice, 1 hour before application (sensitization) of oxazolone (0.1 ml of 5% solution) to the pre-shaven abdominal surface. Seven days later, 25 μl of a 2% solution of oxazolone was applied (challenge) to the right ear, with vehicle being applied to the left ear. After 24 hours, each mouse was sacrificed and ear thickness measured with a Dyer Model micrometer gauge. Greater than 30 percent enhancement is considered immunostimulant activity.

mice C57B1/6 [3] = assay: range-finding study phase (five doses per five days, one dose per day)
[4] = test system: Dopamine D2A (human recombinant); assay: [3H] spiperone dopamine D2A receptor inhibition; type: binding; conditions: 100 uM
lipoxygenase = assay: enzyme inhibition, lipoxygenase; type: biochemical
Description: (§1) Rhamnolipid (II) was tested in vitro against a wide array of enzymes.
(§2) The following enzymes were inhibited at the various rhamnolipid concentrations indicated:
(§3) All enzyme assays were done spectrophotometrically by computer linked automatic microplate reader (Labsystem Multiskan) and Diode Array spectrophotometer (Perkin Elmer).

[5] = test system: T-cells isolated from mouse thymus; assay: T-lymphocyte proliferation; type: cell-based
Description: Procedure: T-cells were isolated from mouse thymus using conventional procedures, and suspended in DMEM. 5×10^6 cells/ml were incubated overnight at 37° C. to assess stimulation (positive score, related to 3 ug/ml Concanavalin A) or suppression (negative score, related to blank control) of cell proliferation. Test substance was evaluated under these conditions at 10, 1, 0.1, 0.01, 0,001 uM. After overnight incubation, 2 uCi [^3 H] thymidine was added to each well. Cells were harvested after an additional 48 hour incubation, and thymidine incorporation assessed by liquid scintillation counting.

seborhoic dermatitis = assay: clinical treatment of seborhoic dermatitis; type: in vivo, human; conditions: one patient
Description: 17 patients, 11 men and 6 women, were treated with rhamnolipid (II). Among these, 12 patients were suffering from Psoriasis, 2 from Neurodermitis, 1 from Lichen ruber planus, 1 from Serborhoic dermatitis and one from Dermatitis circumscripta unilocularis eczematoides.

[6] = test system: measles edmonston A virus; assay: effect on viruses, measles edmonston A; type: cell-based; conditions: concentrations ≤100 ug/ml
citrate bovine blood = assay: hemolytic activity; type: cell-based
Description: Hemolytic activity of rhamnolipid (II) could be seen after sedimentation of erythrocytes, when hemoglobin colored the solution. If there was no hemolytic activity, erythrocytes would have precipitated without coloring the solution. For test purposes 1 ml of citrate bovine blood was added to 49 ml of isotonic solution.
Series of test samples were prepared in concentrations ranging from 1.0 mg/ml to 0.01 mg/ml. 1 ml of diluted citric bovine blood was added to 1 ml of diluted test sample. The test tube was gently mixed and left for 0.25 h, 1 h and 24 h, respectively. The lowest dose of rhamnolipid II that caused hemolysis in 15 min. was 0.35 mg/ml; in 1 h was 0.25 mg/ml and in 24 h was 0.125 mg/ml.

bacterial revertants = assay: Ames test; type: cell-based; conditions: 10, 100, 200, 500, 1000 ug/plate
Description: Tests were performed according to the method described by Ames N. Bruce et al. (Mutation Research, 31 (1975), 347- 364). Test concentrations of rhamnolipid (II) were 10, 100, 200, 500, 1000 ug/plate.
In the range of tested rhamnolipid concentrations, the number of bacterial revertants per Petri dish was in the range of spontaneous revertants which are present without S9 mixture. Therefore, it can be concluded that Rhamnolipid (II) was not mutagenic at the tested concentrations.

herpes simplex virus = assay: effect on viruses, herpes simplex; type: cell-based; conditions: concentrations ≤100 ug/ml
Description: Tests were performed according to D. A. Vanden Berghe et al., Inst. Pasteur 84,101 (1986). Rhamnolipid (II) was toxic for VERO cells in concentrations ≥200 ug/ml, and cytotoxic on MT4 cells in concentrations >169.40 ug/ml.

acetylcholinesterase = assay: enzyme inhibition, acetylcholinesterase; type: biochemical
Description: as §1, §2, §3

[7] = target: Dopamine D1 (human recombinant) (Homo sapiens, UniProt P21728); assay: [3H] SCH23390 dopamine D1 receptor inhibition; type: binding; conditions: 0.5% DMSO
Sequence of Dopamine D1 (human recombinant) (P21728 whole entry): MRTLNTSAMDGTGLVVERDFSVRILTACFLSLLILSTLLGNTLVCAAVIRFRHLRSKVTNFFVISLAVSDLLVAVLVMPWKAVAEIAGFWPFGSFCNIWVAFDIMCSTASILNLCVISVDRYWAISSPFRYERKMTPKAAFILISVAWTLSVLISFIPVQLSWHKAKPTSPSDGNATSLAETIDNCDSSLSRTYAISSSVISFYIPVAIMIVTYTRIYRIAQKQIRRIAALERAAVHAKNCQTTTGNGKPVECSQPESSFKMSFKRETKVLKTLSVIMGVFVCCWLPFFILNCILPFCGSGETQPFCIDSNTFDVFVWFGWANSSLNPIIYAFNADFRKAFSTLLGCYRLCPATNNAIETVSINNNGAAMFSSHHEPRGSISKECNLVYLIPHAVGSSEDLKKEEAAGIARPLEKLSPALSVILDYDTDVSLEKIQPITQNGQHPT

Pseudomonas aeruginosa = assay: minimum inhibitory concentration, Pseudomonas aeruginosa; type: cell-based; conditions: in tested medium
Text: The Minimum inhibitory concentration (MIC) of Rhamnolipid II for Candida albicans, Escherichia coli, Staphylococcus aureus and Pseudomonas aeruginosa was >0.5% in tested medium.

[8] = five doses per day, intraperitoneal
[9] = five doses per five days, intraperitoneal

CCCCCCCC(CC(=O)O)OC(=O)CC(CCCCCCC)O[C@@H]1O[C@@H](C)[C@H](O)[C@@H](O)[C@H]1O[C@@H]1O[C@@H](C)[C@H](O)[C@@H](O)[C@H]1O (stereo partly drawn) [Rhamnolipid (II), (alpha-L-rhamnopyranosyl-(1,2)alpha-L-rhamnopyranosyl)-3-hydroxydecanoyl-3-hydroxydecanoic acid]
five dose toxicity (mice C57B1/6 [1]; [8]): 5 mg/kg
lower bracket dose (LBD) (mice C57B1/6 [1]; [8]): 45 mg/kg
upper bracket dose (UBD) (mice C57B1/6 [1]; [8]): 125 mg/kg
difference between rhamnolipid (II) and control (mice C57B1/6 [1]; fourth day after application): no statistical differences
Swelling Inc. % ([2]; IP 0.1 × 5 mg/kg): -11%
Swelling (R -L) ([2]; IP 0.1 × 5 mg/kg): 15.4 +/- 1.7 × 0.01 mm
ear thickness, Left Ear (No Oxa.) ([2]; IP 0.1 × 5 mg/kg): 19.4 +/- 1.1 × 0.01 mm
ear thickness, Right Ear (24 hrs Oxa.) ([2]; IP 0.1 × 5 mg/kg): 34.8 +/- 1.8 × 0.01 mm
Swelling Inc. % ([2]; IP 1 × 5 mg/kg): 9%
Swelling (R -L) ([2]; IP 1 × 5 mg/kg): 19.0 +/- 2.2 × 0.01 mm
ear thickness, Left Ear (No Oxa.) ([2]; IP 1 × 5 mg/kg): 20.6 +/- 0.9 × 0.01 mm
ear thickness, Right Ear (24 hrs Oxa.) ([2]; IP 1 × 5 mg/kg): 39.6 +/- 2.2 × 0.01 mm
Swelling Inc. % ([2]; IP 10 × 5 mg/kg): 14%
Swelling (R -L) ([2]; IP 10 × 5 mg/kg): 19.8 +/- 1.9 × 0.01 mm
ear thickness, Left Ear (No Oxa.) ([2]; IP 10 × 5 mg/kg): 20.2 +/- 0.4 × 0.01 mm
ear thickness, Right Ear (24 hrs Oxa.) ([2]; IP 10 × 5 mg/kg): 40.0 +/- 1.6 × 0.01 mm
Swelling Inc. % ([2]; IP 100 × 5 mg/kg): -37%
died on Day 2 ([2]; IP 100 × 5 mg/kg): 1/5
Swelling (R -L) ([2]; IP 100 × 5 mg/kg): 11.0 +/- 1.1 × 0.01 mm
ear thickness, Left Ear (No Oxa.) ([2]; IP 100 × 5 mg/kg): 21.3 +/- 1.0 × 0.01 mm
ear thickness, Right Ear (24 hrs Oxa.) ([2]; IP 100 × 5 mg/kg): 32.3 +/- 2.0 × 0.01 mm
lower bracket dose (LBD) (mice C57B1/6 [3]; [9]): 45 mg/kg
single dose toxicity (mice C57B1/6 [3]; [9]): 5 mg/kg
upper bracket dose (UBD) (mice C57B1/6 [3]; [9]): 125 mg/kg
basophiles (mice C57B1/6 [3]; fourth day after application): significant increase
eosinophiles (mice C57B1/6 [3]; fourth day after application): significant increase
lymphocytes (mice C57B1/6 [3]; fourth day after application): significant decrease
neutrophils (mice C57B1/6 [3]; fourth day after application): significant increase
behavior and appearance of treated mice (mice C57B1/6 [3]; observation period): no changes
inhibition of the dopamine D2A receptor [4]: 53%
concentration at which the enzyme was inhibited (lipoxygenase): 10 µg/mL
T-cell proliferation ([5]; 10 uM, without Con A): inhibited
in vitro T cell immunosuppression activity ([5]; 10 uM, without ConA): T cell immunosuppression activity
activation at 0.001 µM ([5]; Mus musculus, T-cell, 0.001 uM, 0.5% DMSO, read-out: % Stimulation (+)/Suppression (-)): -2%
activation at 0.01 µM ([5]; Mus musculus, T-cell, 0.01 uM, 0.5% DMSO, read-out: % Stimulation (+)/Suppression (-)): 0%
activation at 0.1 µM ([5]; Mus musculus, T-cell, 0.1 uM, 0.5% DMSO, read-out: % Stimulation (+)/Suppression (-)): 1%
activation at 1 µM ([5]; Mus musculus, T-cell, 1 uM, 0.5% DMSO, read-out: % Stimulation (+)/Suppression (-)): -3%
activation at 10 µM ([5]; Mus musculus, T-cell, 10 uM, 0.5% DMSO, read-out: % Stimulation (+)/Suppression (-)): -24%
cure (seborhoic dermatitis): completely cured
antiviral activity [6]: no activity
lowest dose that caused hemolysis (citrate bovine blood; 15 min): 0.35 mg/mL
lowest dose that caused hemolysis (citrate bovine blood; 1 h): 0.25 mg/mL
lowest dose that caused hemolysis (citrate bovine blood; 24 h): 0.125 mg/mL
amount that led to hemolytic activity (citrate bovine blood; diluted in 2 ml isotonic solution of diluted citric bovine blood, lower did not): 0.25 mg
mutagenicity (Ames test) (bacterial revertants): not mutagenic
mutagenicity (Ames test) (bacterial revertants; listed as rhamnolipid II): negative
antiviral activity (herpes simplex virus): no activity
concentration at which the enzyme was inhibited (acetylcholinesterase): 1 mg/mL
inhibition at 0.01 µM ([7]; 0.01 μM): 8%
inhibition at 1 µM ([7]; 1 μM): 8%
inhibition at 100 µM ([7]; 100 μM): 101%
Minimum inhibitory concentration (MIC) (Pseudomonas aeruginosa): > 0.5%
